Experimental data as given in US20240239752A1, “BICYCLIC HETEROAROMATIC INHIBITORS OF KLK5” (BioCryst Pharmaceuticals, Inc., priority 2021, published 2024).

Biological target: T1, recombinant human KLK5 (Homo sapiens, UniProt Q9Y337)
T1 construct: purchased Novoprotein or R&D Systems C415 or 1108-SE
T1 sequence (Q9Y337 23-293): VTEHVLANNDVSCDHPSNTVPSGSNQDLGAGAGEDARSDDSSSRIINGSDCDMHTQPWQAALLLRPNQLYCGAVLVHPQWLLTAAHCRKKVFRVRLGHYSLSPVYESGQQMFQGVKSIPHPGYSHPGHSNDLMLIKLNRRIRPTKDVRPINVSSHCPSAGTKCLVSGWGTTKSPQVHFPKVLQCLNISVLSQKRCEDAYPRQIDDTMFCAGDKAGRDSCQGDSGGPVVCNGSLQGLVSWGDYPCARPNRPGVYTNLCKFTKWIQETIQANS
Test: Kallikrein (KLK) 5 enzymatic assay (Boc-VPR-AMC fluorogenic substrate)
Type: biochemical
Settings: recombinant human KLK5 0.1 μg/well, Boc-VPR-AMC 100 μM, pH 7.5, room temperature, 1% DMSO; tested a minimum of three times
Summary of the method: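 Fluorogenic rate assay at pH 7.5 (0.1 M NaH2PO4, 1% DMSO, room temperature), run at least three times per compound. Compound was premixed with 0.1 μg/well recombinant human KLK5 before adding 100 μM Boc-VPR-AMC; AMC release was read at ex 380/em 460 nm, and IC50 derived from inhibition of rate vs DMSO control.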

| SMILES | IC50 [µM] |
| --- | --- |
| Cn1c(=O)n(Cc2ccccc2CC(=O)O)c2cc(-c3cccc(C(N)=O)c3)ccc21 [Compound 219d, 2-(2-((6-(3-carbamoylphenyl)-3-methyl-2-oxo-2,3-dihydro-1H-benzo[d]imidazol-1-yl)methyl)phenyl)acetic acid] | 1 to 10 |
| CC(C)n1nc(COc2ccccc2CC(=O)O)c2cc(-c3ccc4[nH]c(N)nc4c3)ccc21 [Compound 26c, 2-(2-((5-(2-amino-1H-benzo[d]imidazol-5-yl)-1-isopropyl-1H-indazol-3-yl)methoxy)phenyl)acetic acid] | 1 to 10 |
| CC(C)COC(=O)N1CC[C@H](n2nc(COc3ccccc3CC(=O)O)c3cc(-c4cccc5c(N)nccc45)ccc32)C1 [Compound 361b, (S)-2-(2-((5-(1-aminoisoquinolin-5-yl)-1-(1-(isobutoxycarbonyl)pyrrolidin-3-yl)-1H-indazol-3-yl)methoxy)phenyl)acetic acid] | < 1 |
| CC(C)(C)OC(=O)N1CC(n2nc(COc3ccccc3CC(=O)O)c3cc(-c4cccc5c(N)nccc45)ccc32)C1 [Compound 142b, 2-(2-((5-(1-aminoisoquinolin-5-yl)-1-(1-(tert-butoxycarbonyl)azetidin-3-yl)-1H-indazol-3-yl)methoxy)phenyl)acetic acid] | < 1 |
| CC(C)n1nc(COc2ccccc2CC(=O)O)c2cc(-c3ccc4c(N)n[nH]c4c3)ccc21 [Compound 67c, 2-(2-((3′-amino-1-isopropyl-1H, 1′H-[5,6′-biindazol]-3-yl)methoxy)phenyl)acetic acid] | > 10 |
| Cn1c(=O)n(Cc2ccccc2CC(=O)O)c2cc(-c3cccc(C(=N)N)c3)ccc21 [Compound 219c, 2-(2-((6-(3-carbamimidoylphenyl)-3-methyl-2-oxo-2,3-dihydro-1H-benzo[d]imidazol-1-yl)methyl)phenyl)acetic acid] | 1 to 10 |
| CC(C)(C)OC(=O)N1CC(Cn2nc3ccc(-c4cccc5c(N)nccc45)cc3c2COc2ccccc2CC(=O)O)C1 [Compound 139f, 2-(2-((5-(1-aminoisoquinolin-5-yl)-2-((1-(tert-butoxycarbonyl)azetidin-3-yl)methyl)-2H-indazol-3-yl)methoxy)phenyl)acetic acid] | < 1 |
| COc1ccc(CC(=O)O)c(OCc2nn(C)c3ccc(-c4cccc(C(=N)N)c4)cc23)c1 [Compound 101b, 2-(2-((5-(3-carbamimidoylphenyl)-1-methyl-1H-indazol-3-yl)methoxy)-4-methoxyphenyl)acetic acid] | < 1 |
| COc1cccc(OCc2nn(C3CCC3)c3ccc(-c4ccc5ccnc(N)c5c4)cc23)c1CC(=O)O [Compound 172d, 2-(2-((5-(1-aminoisoquinolin-7-yl)-1-cyclobutyl-1H-indazol-3-yl)methoxy)-6-methoxyphenyl)acetic acid] | 1 to 10 |
| CC(C(=O)O)c1ccccc1OCc1nn(C2CCOC2)c2ccc(-c3ccc4ccnc(N)c4c3)cc12 (stereo not shown) [Compound 242b, 2-(2-((5-(1-aminoisoquinolin-7-yl)-1-(tetrahydrofuran-3-yl)-1H-indazol-3-yl)methoxy)phenyl)propanoic acid] | < 1 |
| CCOc1c(C(=N)N)cccc1-c1ccc2c(c1)c(COc1ccccc1CC(=O)O)nn2C(C)C [Compound 273e, 2-(2-((5-(3-carbamimidoyl-2-ethoxyphenyl)-1-isopropyl-1H-indazol-3-yl)methoxy)phenyl)acetic acid] | < 1 |
| CC(C)n1nc(COc2ccccc2CC(=O)O)c2cc(-c3cc4cc(N)ccc4cn3)ccc21 [Compound 38c, 2-(2-((5-(6-aminoisoquinolin-3-yl)-1-isopropyl-1H-indazol-3-yl)methoxy)phenyl)acetic acid] | > 10 |

The remaining lines, values ahead:

| IC50 [µM] | SMILES |
| --- | --- |
| < 1 | Nc1nccc2ccc(-c3ccc4c(c3)c(COc3ccccc3CC(=O)O)nn4C3CCC3)cc12 [Compound 37c, 2-(2-((5-(1-aminoisoquinolin-7-yl)-1-cyclobutyl-1H-indazol-3-yl)methoxy)phenyl)acetic acid] |
| < 1 | Cc1cccc(OCc2nn(C3CCOC3)c3ccc(-c4cccc5c(N)nccc45)cc23)c1CC(=O)O (stereo not shown) [Compound 247c, 2-(2-((5-(1-aminoisoquinolin-5-yl)-1-(tetrahydrofuran-3-yl)-1H-indazol-3-yl)methoxy)-6-methylphenyl)acetic acid] |
| < 1 | N#Cc1ccc(CC(=O)O)c(O[C@@H]2CCc3ccc(-c4ccc5ccnc(N)c5c4)cc32)c1 [Compound 423c, (R)-2-(2-((6-(1-aminoisoquinolin-7-yl)-2,3-dihydro-1H-inden-1-yl)oxy)-4-cyanophenyl)acetic acid] |
| 1 to 10 | Nc1nccc2ccc(-c3ccc4c(c3)C(COc3ccccc3CC(=O)O)CC43CCCC3)cc12 (stereo not shown) [Compound 402a, 2-(2-((5′-(1-aminoisoquinolin-7-yl)-2′,3′-dihydrospiro[cyclopentane-1,1′-inden]-3′-yl)methoxy)phenyl)acetic acid] |
| < 1 | CC1(C)Cc2ccc(-c3cccc4c(N)nccc34)cc2C1Oc1ccccc1CC(=O)O (stereo not shown) [Compound 437f, 2-(2-((6-(1-aminoisoquinolin-5-yl)-2,2-dimethyl-2,3-dihydro-1H-inden-1-yl)oxy)phenyl)acetic acid] |
| 1 to 10 | Nc1nccc2ccc(-c3ccc4c(c3)[C@H](Oc3cccc(OC(F)(F)F)c3CC(=O)O)CC4)cc12 [Compound 434c, (R)-2-(2-((6-(1-aminoisoquinolin-7-yl)-2,3-dihydro-1H-inden-1-yl)oxy)-6-(trifluoromethoxy)phenyl)acetic acid] |
| < 1 | Cc1cccc(OC2CC3(CCN(S(C)(=O)=O)CC3)c3ccc(-c4cccc5c(N)nccc45)cc32)c1CC(=O)O (stereo not shown) [Compound 449b, 2-(2-((5-(1-aminoisoquinolin-5-yl)-1′-(methylsulfonyl)-2,3-dihydrospiro[indene-1,4′-piperidin]-3-yl)oxy)-6-methylphenyl)acetic acid] |
| < 1 | CC(C)CCN1CC(Cn2nc(COc3ccccc3CC(=O)O)c3cc(-c4ccc5ccnc(N)c5c4)ccc32)C1 [Compound 307c, 2-(2-((5-(1-aminoisoquinolin-7-yl)-1-((1-isopentylazetidin-3-yl)methyl)-1H-indazol-3-yl)methoxy)phenyl)acetic acid] |
| 1 to 10 | Nc1nccc2ccc(-c3ccc4nn(C5CCOC5)c(COc5ccccc5CC(=O)O)c4c3)cc12 (stereo not shown) [Compound 109b, 2-(2-((5-(1-aminoisoquinolin-7-yl)-2-(tetrahydrofuran-3-yl)-2H-indazol-3-yl)methoxy)phenyl)acetic acid] |
| < 1 | Nc1nccc2c(-c3ccc4c(c3)c(COc3ccccc3CC(=O)O)nn4C3CN(CCO)C3)cccc12 [Compound 147c, 2-(2-((5-(1-aminoisoquinolin-5-yl)-1-(1-(2-hydroxyethyl)azetidin-3-yl)-1H-indazol-3-yl)methoxy)phenyl)acetic acid] |
| < 1 | N=C(N)c1cccc(-c2ccc3c(c2)c(COc2ccccc2CC(=O)O)nn3C2CCCC2)c1 [Compound 224b, 2-(2-((5-(3-carbamimidoylphenyl)-1-cyclopentyl-1H-indazol-3-yl)methoxy)phenyl)acetic acid] |
| < 1 | Cc1cccc(OCc2nn(C3CCC(F)(F)C3)c3ccc(-c4cccc5c(N)nccc45)cc23)c1CC(=O)O (stereo not shown) [Compound 276c, 2-(2-((5-(1-aminoisoquinolin-5-yl)-1-(3,3-difluorocyclopentyl)-1H-indazol-3-yl)methoxy)-6-methylphenyl)acetic acid] |
| < 1 | COCCN1CC(n2nc(COc3ccccc3CC(=O)O)c3cc(-c4cccc5c(N)nccc45)ccc32)C1 [Compound 143d, 2-(2-((5-(1-aminoisoquinolin-5-yl)-1-(1-(2-methoxyethyl)azetidin-3-yl)-1H-indazol-3-yl)methoxy)phenyl)acetic acid] |
| < 1 | Cn1nc(COc2ccccc2CC(=O)O)c2cc(-c3cccc(C(=N)N)c3)ccc21 [Compound 4e, 2-(2-((5-(3-carbamimidoylphenyl)-1-methyl-1H-indazol-3-yl)methoxy)phenyl)acetic acid] |
| < 1 | Cc1cccc(OC2CC3(CCOCC3)c3ccc(-c4ccc5ccnc(N)c5c4)cc32)c1CC(=O)O (stereo not shown) [Compound 352c, 2-(2-((5-(1-aminoisoquinolin-7-yl)-2,2′,3,3′,5′,6′-hexahydrospiro[indene-1,4′-pyran]-3-yl)oxy)-6-methylphenyl)acetic acid] |
| < 1 | Cc1cc(-c2cccc3c(N)nccc23)cc2c1CCC2Oc1ccccc1CC(=O)O (stereo not shown) [Compound 206b, 2-(2-((6-(1-aminoisoquinolin-5-yl)-4-methyl-2,3-dihydro-1H-inden-1-yl)oxy)phenyl)acetic acid] |
| < 1 | COCCn1nc(COc2ccccc2CC(=O)O)c2cc(-c3ccc4ccnc(N)c4c3)ccc21 [Compound 111e, 2-(2-((5-(1-aminoisoquinolin-7-yl)-1-(2-methoxyethyl)-1H-indazol-3-yl)methoxy)phenyl)acetic acid] |
| < 1 | Nc1nccc2ccc(-c3ccc4c(c3)C(Oc3cc(F)ccc3CC(=O)O)CC43CCCC3)cc12 (stereo not shown) [Compound 443b, 2-(2-((5′-(1-aminoisoquinolin-7-yl)-2′,3′-dihydrospiro[cyclopentane-1,1′-inden]-3′-yl)oxy)-4-fluorophenyl)acetic acid] |
| 1 to 10 | CC(C)n1nc(COc2ccccc2CC(=O)O)c2cc(-c3ccc4c(N)nccc4c3)ccc21 [Compound 99c, 2-(2-((5-(1-aminoisoquinolin-6-yl)-1-isopropyl-1H-indazol-3-yl)methoxy)phenyl)acetic acid] |
